Results on eleven compounds are retold here after ChEMBL document CHEMBL1201862, “PubChem BioAssay data set” (2004).

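These data come from cells grown in 96-well plates and exposed to compound for 48 hours at five concentrations. GI50 = concentration required for 50% inhibition of growth.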 Activity calls are given as the source filed them. Cut-off read from the data, not from the text of the source: active = GI50 up to about 1.1 µM and inactive = higher.

Assay in all cases: NCI tumour cell line growth inhibition, 48 h
Assay [1] concerns NCI/ADR-RES.
Assay [2] has as its system COLO 205.
Assay [3] deals with EKVX.
Assay [4] relates to OVCAR-8.
For assay [5], the system named is T47D.
Assay [6] concerns NCI-H226.
Assay [7] deals with CAKI-1.
Assay [8] concerns BT-549.
The test system of assay [9] is SF-539.
Assay [10] deals with HOP-92.
Assay [11] deals with NCI-H23.
In assay [12] the test system is HCC 2998.
In assay [13] the test system is LOX IMVI.
Assay [14] has as its system SNB-75.
The subject of assay [15] is UO-31.
The subject of assay [16] is MDA-MB-435.
For assay [17], the system named is HCT-116.
In assay [18] the test system is M14.
The test system of assay [19] is ACHN.
The subject of assay [20] is NCI-H522.

In the case of `Cc1ccc(/N=N/NCCCCN/N=N/c2ccc(C)cc2)cc1`, the GI50 in assay [1] was > 100 µM (inactive); in assay [2] it was 35.4 µM (inactive); in assay [3], > 100 µM (inactive); in assay [4], 27.4 µM (inactive); in [5], 11.5 µM (inactive); in assay [6] it was > 100 µM (inactive). Also, the GI50 in assay [7] was > 100 µM (inactive); in [8], > 100 µM (inactive); in [9] it was > 100 µM (inactive); in [10] it was 25.3 µM (inactive); in [11], 9.25 µM (inactive); in assay [12], 13.9 µM (inactive). Besides, the GI50 was 1.17 µM (inactive) in [13]; > 100 µM (inactive) in assay [14]; 0.196 µM (active) in assay [15]; 11.8 µM (inactive) in assay [16]; 65.8 µM (inactive) in assay [17]; 8.05 µM (inactive) in [18].
In the case of `Cc1cn(C2CC(O)C(Cn3nncc3Cn3ncc(=O)[nH]c3=O)O2)c(=O)[nH]c1=O` (centres undefined), the GI50 in assay [1], in assay [2], in assay [3], in assay [4], in assay [5] and in assay [6] was > 100 µM (inactive) throughout. Besides, the GI50 in assay [7], in assay [8], in assay [9], in assay [10], in [11] and in assay [19] was > 100 µM (inactive) throughout. Also, the GI50 in [12], in [13], in assay [15], in assay [16], in [17] and in assay [18] was > 100 µM (inactive) each time.
For the compound `CC1OC(OC2C(CO)OC(O[C@H]3CC[C@@]4(C)C(=CC[C@H]5[C@@H]6C[C@@H]7O[C@](O)(CC[C@H](CO)COC8OC(CO)C(O)C(O)C8O)[C@@H](C)[C@@H]7[C@@]6(C)CC[C@@H]54)C3)C(OC3OC(C)C(O)C(O)C3O)C2O)C(O)C(O)C1O` (some centres undefined), the GI50 in assay [1] was 91.4 µM (inactive); in [2] it was > 100 µM (inactive); in assay [3] it was > 100 µM (inactive); in assay [4], > 100 µM (inactive); in [5], > 100 µM (inactive); in assay [7] it was > 100 µM (inactive). Besides, the GI50 in assay [8], in assay [9], in assay [20], in [10], in [11] and in [19] was > 100 µM (inactive) throughout. The GI50 in assay [12], in assay [13], in assay [14], in assay [15], in assay [16] and in [17] was > 100 µM (inactive) each time. In addition, in assay [18], the GI50 was > 100 µM (inactive).
On to `NC(Cc1c[nH]c2ccccc12)P(=O)(O)O` (centres undefined), for which the GI50 in [1], in assay [2], in assay [3], in assay [4], in assay [5] and in assay [6] was > 100 µM (inactive) each time. For the same compound, the GI50 in [7] was > 100 µM (inactive); in assay [8] it was > 100 µM (inactive); in assay [9], > 100 µM (inactive); in [20], > 100 µM (inactive); in [10] it was > 10 µM (inactive); in assay [11] it was > 100 µM (inactive). The GI50 in assay [19], in assay [12], in assay [14], in assay [15], in assay [16] and in [17] was > 100 µM (inactive) in each case. In [18], the GI50 is > 100 µM (inactive).
In the case of `CN(C)S(=O)(=O)Nc1nnc(S(N)(=O)=O)s1`, the GI50 was > 100 µM (inactive) in assay [1]; > 100 µM (inactive) in assay [2]; > 100 µM (inactive) in assay [3]; 64.3 µM (inactive) in assay [5]; > 100 µM (inactive) in [6]; > 100 µM (inactive) in assay [7]. Besides, the GI50 in assay [8], in assay [9], in assay [20], in assay [10], in assay [11] and in assay [19] was > 100 µM (inactive) each time. In addition, the GI50 in [12], in assay [14], in assay [15], in assay [16], in assay [17] and in assay [18] was > 100 µM (inactive) each time.
In the case of `COc1cc(/C=C2\N=C(c3ccccc3)N(/N=C/c3cc4cc(C)ccc4nc3Cl)C2=O)cc(OC)c1OC`, the GI50 in [1] was 28 µM (inactive); in [2], 24.5 µM (inactive); in assay [3], 54.5 µM (inactive); in [4], 35.1 µM (inactive); in [5] it was 18 µM (inactive); in [7], 61.7 µM (inactive). Also, the GI50 in assay [8] is 52.2 µM (inactive); in assay [9], 23.4 µM (inactive); in [10], 54.6 µM (inactive); in [19] it was 34.2 µM (inactive); in [12], 18.8 µM (inactive); in [13], 32.1 µM (inactive). Moreover, the GI50 in [14] is 17.1 µM (inactive); in assay [15] it was 48.6 µM (inactive); in assay [16], 15.8 µM (inactive); in assay [17], 33.7 µM (inactive); in [18], 39.4 µM (inactive).
Consider `O=C(CSC1=NCCN1)Nc1ccccc1`, for which the GI50 in [1] was 26.4 µM (inactive); in assay [3], 45.2 µM (inactive); in [4], 29.4 µM (inactive); in assay [5], 12.9 µM (inactive); in assay [7], 73.8 µM (inactive); in assay [8], 24.5 µM (inactive). Moreover, the GI50 in [20] was 19 µM (inactive); in assay [10] it was 26.8 µM (inactive); in assay [11], 37.6 µM (inactive); in assay [19] it was 22.4 µM (inactive); in assay [12], 23.8 µM (inactive); in assay [13], 18 µM (inactive). Further, the GI50 in [14] was 21.5 µM (inactive); in [15], 27.4 µM (inactive); in assay [16], 34.8 µM (inactive); in [17] it was 23.8 µM (inactive); in [18], 32.9 µM (inactive).
As for `O=C1NC(N/N=C/c2ccccc2)=N/C1=C\c1ccco1`, the GI50 in assay [1] was 32.7 µM (inactive); in [2] it was 57.4 µM (inactive); in assay [3], 36.7 µM (inactive); in [4] it was 16.1 µM (inactive); in [5], 26.9 µM (inactive); in [6], 35.5 µM (inactive). The GI50 was 37.3 µM (inactive) in [7]; 23.7 µM (inactive) in [8]; 26.1 µM (inactive) in assay [20]; 11.3 µM (inactive) in assay [10]; 26.4 µM (inactive) in [11]; 21.9 µM (inactive) in assay [19]. The GI50 is 32.1 µM (inactive) in assay [12]; 47.8 µM (inactive) in [14]; 46.8 µM (inactive) in [15]; 51.9 µM (inactive) in assay [16]; 42.9 µM (inactive) in [17]; 46.2 µM (inactive) in [18].
As for `O=C(CC(=O)N(C(=O)c1ccccc1)c1ccc(Cl)cc1)N/N=C\c1cc(/N=N/c2ccccc2Cl)ccc1O`, the GI50 in [1] was > 10 µM (inactive); in assay [2] it was > 100 µM (inactive); in assay [3] it was 90.2 µM (inactive); in assay [4], > 100 µM (inactive); in assay [5], 51.6 µM (inactive); in assay [6] it was > 100 µM (inactive). In addition, the GI50 is > 100 µM (inactive) in assay [7]; > 100 µM (inactive) in assay [8]; 34.8 µM (inactive) in assay [9]; 23.5 µM (inactive) in assay [10]; > 100 µM (inactive) in assay [11]; > 100 µM (inactive) in [19]. In addition, the GI50 was > 100 µM (inactive) in assay [12]; > 100 µM (inactive) in assay [13]; 12.4 µM (inactive) in [14]; 45.6 µM (inactive) in assay [15]; > 100 µM (inactive) in assay [16]; 75 µM (inactive) in assay [17]. Besides, the GI50 in assay [18] is > 100 µM (inactive).
Turning to `CC(C)(C)C(=O)C(N)C(=O)C(C)(C)C`, the GI50 in [1], in [2], in assay [4], in assay [5], in assay [7] and in assay [8] was > 100 µM (inactive) throughout. Besides, the GI50 in assay [9], in assay [20], in assay [10], in [19], in assay [12] and in assay [13] was > 100 µM (inactive) in each case. Moreover, the GI50 in assay [14], in [15], in assay [16], in assay [17] and in assay [18] was > 100 µM (inactive) each time.
Consider `Nc1cc(N)c(/N=N/c2cccc3c(S(=O)(=O)O)cccc23)cc1/N=N/c1cc([N+](=O)[O-])ccc1O`, for which the GI50 in [1] is 21.9 µM (inactive); in assay [2] it was 38.5 µM (inactive); in [3], > 100 µM (inactive); in assay [4] it was 23.4 µM (inactive); in assay [5], 38.8 µM (inactive); in [7] it was 23.6 µM (inactive). Further, the GI50 in [8] was 31.6 µM (inactive); in assay [9] it was 38 µM (inactive); in [20] it was 17.5 µM (inactive); in assay [10] it was 35.6 µM (inactive); in assay [11] it was 45 µM (inactive); in assay [19], 22.2 µM (inactive). Moreover, the GI50 in assay [12] was 23.2 µM (inactive); in assay [13], 13.6 µM (inactive); in assay [14], 49.1 µM (inactive); in assay [15], 19 µM (inactive); in assay [16], 35.6 µM (inactive); in assay [17] it was 32.7 µM (inactive). Moreover, in assay [18], the GI50 is 26.1 µM (inactive).
